From ChEMBL document CHEMBL1158744, “Leptolide, a new furanocembranolide diterpene from Leptogorgia alba” (J Nat Prod, 2005) come the findings set out here.

The subject of this assay is Plasmodium falciparum. As to the kind of experiment: Antiplasmodial activity against Plasmodium falciparum W2 after 48 hrs in PicoGreen microfluorimetry. Format: functional, organism-based. Conditions: W2, 48 h.
Take `C=C(C)[C@H]1CC2=C(C(=O)OC)C=C(O2)[C@H]2O[C@]2(C)C[C@H]2C=C(C(=O)O2)[C@H](OC(C)=O)C1`: the IC50 (in general, the concentration needed to halve the response being measured) is 109 µM.

`C=C(C)[C@@H]1CCC2=C[C@@H](OC2=O)[C@@H](C(=C)C)C2=CC(C(=O)OC)=C(C1)O2` [DEOXYPSEUDOPTEROLIDE] came in with an IC50 of 50 µM. As to `C=C(C)[C@H]1CC2=C(C(=O)OC)C=C(O2)[C@H]2O[C@]2(C)C[C@@H]2OC(=O)[C@]3(O[C@@H]23)[C@H](OC(C)=O)C1` [LOPHOLIDE], the IC50 was 105 µM. This IC50 is about 2.1-fold higher than that of the compound before. Under `C=C(C)[C@@H]1CC2=C(C=O)C=C(O2)[C@@H]2O[C@@]2(C)C[C@H]2OC(=O)[C@@]3(O[C@H]23)[C@@H](OC(C)=O)C1` [LOPHOTOXIN] stands 74 µM. Turning to `C=C(C)[C@H]1CCC2=C[C@@H](C[C@]3(C)O[C@H]3C3=CC(C=O)=C(C1)O3)OC2=O` [PUKALIDE ALDEHYDE], it took 134 µM to reach half-maximal inhibition (IC50).
